The values that follow come from patent US20100160266A1, “ORGANIC COMPOUNDS” (NABRIVA TH[…], priority 2005, published 2010).

The test system of this test is anaerobic bacteria. Kind of test: in vitro acne assays: MIC by agar dilution technique on Wilkins-Chalgren Agar (NCCLS guidelines). In kind it is cell-based. As to conditions: compared with the same pleuromutilin in the form of a hydrochloride. The protocol: E.g. in commercially available in vitro acne assays (the determination of the minimal inhibitory concentration (MIC) is performed according to the approved NCCLS guidelines^1) by agar dilution technique on Wilkins-Chalgren Agar—1) National committee for clinical laboratory standards. Methods for Antimicrobial susceptibility testing of anaerobic bacteria. 1993.
A general note: Agar dilution tests growth on a series of plates holding different concentrations.

With `C=CC1(C)CC(OC(=O)CSC2CCCN(C(=O)C(N)C(C)C)C2)C2(C)C(C)CCC3(CCC(=O)C32)C(C)C1O` [Example 1, 14-O—[(N—((R)-Valyl)-piperidine-3(S)-yl)-sulfanylacetyl)-mutilin], the “activity in in vitro acne assays (minimal inhibitory concentration, MIC)” value is “remarkably better activity”.
